From patent publication US11597962B2, “Rapid selective detection of bacteria” (priority 2017, dated 2023)
Positions of bridges follow the written chain, without caps; N, C: chain ends. No end group written: not given here.

How the values were obtained:
[1] = test system: Listeria innocua ATCC 33091; experiment: Detection of bacteria using AuNC on LeuA-conjugated PVDF membrane; assay type: binding; settings: 5000 cfu in 500 μL water; baseline without bacteria 3880
From the text: Detection of bacteria using AuNC on membrane. A low-fluorescence polyvinylidene difluoride (PVDF) membrane (Thermo Scientific) was cut into 3 small circular pieces (˜0.75 cm radius). The circular membrane was placed on a membrane holder which was connected to a side arm Erlenmeyer flask with vacuum. Each membrane was first washed with copious amount of water by allowing water to filter through the membrane using a gentle vacuum. Membranes 1 and 2 were then conjugated with peptide LeuA by delivering 100 μL peptide solution (0.012 mM). The peptide was allowed to bind the membrane for ˜20 minutes and then excess, unbound peptide was removed by vacuum. Next, the peptide-conjugated membranes were exposed to samples with bacteria (5000 cfu Listeria innocua ATCC 33091 in 500 μL water; membrane 1) or without bacteria (500 μL water; membrane 2). […] Excess AuNC was removed by vacuum and the membrane was allowed to dry for ˜15-20 mins before fluorescence imaging. The fluorescence of each membrane was read using BioRad Imager (FIG. 12). […] The fluorescence for the peptide-conjugated membrane alone (no bacteria; membrane 2) could be due to the binding of AuNC to the peptide. This represents baseline fluorescence (3880) and any increase in fluorescence from baseline represents the presence of bacteria as shown in FIG. 12. […]

[2] = test system: S. enterica Serovar Enteritidis; experiment: Selectivity of the biosensor assay, S. enterica; assay type: binding, Salmonella enterica; settings: 10^4 cells/10 μL; one value for both Gram-negative bacteria; control 12000±2000
Method: (§1) The selectivity of the biosensor assay was tested with three L. monocytogenes strains (ATCC 43256, ATCC 19116, and Pat Type 1), B. cereus ATCC 14579, S. aureus ATCC 29213, S. enterica, and E. coli DHα. Water (no bacteria) was used as a control. Another control used was with a negative peptide (24-mer) spot, and L. monocytogenes 19116 was used. The biosensor assay was performed as described above.

[3] = test system: L. monocytogenes 19116; experiment: Detection of Listeria monocytogenes in spiked milk sample (glass biosensor); assay type: binding; settings: whole milk (3.5% fat) diluted with water, 10^3 cells/μL
Method: Detection of Listeria monocytogenes in spiked milk sample. A spiked milk sample was prepared using milk (3.5% fat, 1 mL) diluted with water (9 mL). L. monocytogenes 19116 was added to the diluted milk to obtain a bacterial concentration of 10^4 cfu/10 μL. Water was used as a control. The biosensor assay was performed on the spiked milk sample as described above.

[4] = test system: E. coli DHα; experiment: Selectivity of the biosensor assay, E. coli; assay type: binding, Escherichia coli; settings: 10^4 cells/10 μL; one value for both Gram-negative bacteria; control 12000±2000
Method: as §1

[5] = test system: L. monocytogenes Type I; experiment: Bioactivity agar plate assay (zone of inhibition); assay type: cell-based, Listeria monocytogenes; settings: peptide 2.3, 0.23, 0.023 mM, 10 μL spots; 37° C., 24 hours
Method: Bioactivity. LeuA and negative peptide were checked for activity using agar plate inoculated with L. monocytogenes Type I. Briefly, a TSB agar plate was spotted with different concentrations of peptide (2.3, 0.23, and 0.023 mM, dissolved in water) with a spot volume of 10 μL. Then the 6 mL soft agar inoculated with 60 μL L. monocytogenes (overnight culture, undiluted) was plated over the TSB agar. The plate was incubated at 37° C. and zone of inhibition was checked after 24 hours.

[6] = test system: S. aureus ATCC 29213; experiment: Selectivity of the biosensor assay, S. aureus; assay type: binding, Staphylococcus aureus; settings: 10^4 cells/10 μL; control 12000±2000
Method: as §1

[7] = test system: L. monocytogenes strains (ATCC 43256, ATCC 19116, and Pat Type 1); experiment: Selectivity of the biosensor assay, Listeria strains; assay type: binding, Listeria monocytogenes; settings: 10^4 cells/10 μL; control sample (water) 12000±2000
Method: as §1

[8] = test system: B. cereus ATCC 14579; experiment: Selectivity of the biosensor assay, B. cereus; assay type: binding, Bacillus cereus; settings: 10^4 cells/10 μL; control 12000±2000
Method: as §1

[9] = test system: L. monocytogenes ATCC 43256; experiment: Detecting L. monocytogenes using AuNC on LeuA-spotted glass surface; assay type: binding, Listeria monocytogenes; settings: Leu A 10 μL 0.13 mM, 10^4 cells, AuNC 12 μL; AuNC alone 31860±11608, peptide + AuNC without bacteria 34352±1812
Method: Detecting L. monocytogenes using AuNC on glass surface. An aqueous solution of Leu A (10 μL, 0.13 mM) was spotted on a glass slide (˜4 mm diameter) in triplicate. The peptide spots were allowed to air dry (˜20 min). This was followed by spotting bacteria L. monocytogenes ATCC 43256 (10 μL, 10^4 cells) or no bacteria (10 μL water) on top of the peptide spot. The glass slide was then dipped in MilIQ water for 10 seconds to remove all non-bound bacteria. The slide was allowed to air dry and finally AuNC (12 μL) was deposited on each spot. AuNC (12 μL) alone was also spotted as a control. The mean fluorescence intensity was recorded using Chemidoc imager. The experiment was repeated three times.

[10] = test system: L. monocytogenes ATCC 19116; experiment: Glass biosensor assay: peptide concentration optimization and limit of detection; assay type: binding, Listeria monocytogenes
Method: Optimization of peptide concentration. The bio-sensor was optimized by testing different LeuA concentrations. The slide was spotted with 10 μL of varying peptide concentrations (0, 0.013, 0.025, 0.064, or 0.13 mM). The peptide spot was allowed to air dry for 20 min. Next, bacteria (L. monocytogenes ATCC 19116) was spotted at a constant concentration (10 μL, 10^4 cfu). After drying, the slides were dipped in MilIQ water for 10 seconds. Lastly AuNC (12 μl) was spotted to quantify the fluorescence intensity of the spots.
Sensitivity and selectivity of the biosensor. To obtain the limit of detection (LOD), the biosensor assay was performed with varying number of bacteria in 10 μL sample. An overnight culture of L. monocytogenes ATCC 19116 was diluted to obtain samples with 0, 200, 1000, 2000, and 10000 cfu/10 μL. A glass slide was prepared with peptide spots (Leu A, 0.13 mM, 10 μL) as descried above and bacteria (10 μL) were spotted on the peptide spot followed by AuNC labeling and fluorescence recording using Chemidoc imager.

[11] = test system: L. monocytogenes ATCC 19116; experiment: LeuA-conjugated PVDF membrane assay: sample volumes and limit of detection; assay type: binding, Listeria monocytogenes
Method: Detection of L. monocytogenes from different sample volumes. Six circular membranes conjugated with peptide LeuA were prepared as described above. Peptide-conjugated membranes were exposed to three samples of different volumes (500 μL, 1 mL, and 5 mL) each containing same number of L. monocytogenes ATCC 19116 (2000 cfu). Membranes were also exposed to samples (water) with no bacteria (500 μL, 1 mL, and 5 mL) to serve as controls. After passing the samples through the membranes, all membranes were reacted with AuNC (500 μL, 100 μL stock diluted to 500 μL with water) to label the bound bacteria. Excess AuNC from each membrane was removed by vacuum and the membrane was allowed to dry for ˜15-20 mins before fluorescence imaging. The fluorescence of each membrane was read using a BioRad Imager. […] The increase in fluorescence was calculated using the following equation. [formula] Estimation of the limit of detection for L. monocytogenes. Four circular membranes conjugated with peptide LeuA were prepared as described above. The membranes were exposed to samples (500 μL) containing different numbers of L. monocytogenes ATCC 19116 (0, 200, 2000, or 20000 CFU). The rest of the assay was performed as described above.

[12] = test system: S. aureus ATCC 13565; settings: observed previously; cited from earlier work
[13] = test system: L. monocytogenes species; settings: against L. monocytogenes species; cited from earlier work

Substance | fluorescence of membrane [1] | fluorescence of AuNC-labeled bound bacteria [2] | fluorescence of spiked milk sample compared to the milk alone [3] | fluorescence of AuNC-labeled bound bacteria [4] | activity in bioactivity plate assay (zone of inhibition) [5] | fluorescence of AuNC-labeled bound bacteria [6] | fluorescence of AuNC-labeled bound bacteria [7] | fluorescence of AuNC-labeled bound bacteria [8] | MFI of AuNC-labeled bacteria bound to peptide [9] | fluorescence of bound bacteria ([10]; 2000 cfu bacteria per spot) | fluorescence of bound bacteria ([10]; 10000 cfu bacteria per spot) | fluorescence of bound bacteria (highest) ([10]; peptide concentration 0.13 mM, 10 μL, bacteria 10^4 cfu/10 μL) | percent increase in fluorescence ([11]; 200 cfu in 500 μL) | percent increase in fluorescence ([11]; 2000 cfu in 500 μL) | percent (%) increase in fluorescence ([11]; 2000 cfu in 500 μL, 1 mL and 5 mL) | percent increase in fluorescence ([11]; 20000 cfu in 500 μL) | binding of bacteria to peptide [12] | minimum inhibitory concentration (MIC) [13]
Leucocin A (KYYGNGVHCTKSGCSVNWGEAFSAGVHRLANGGNGFW-OH; disulfide 9-14 (inferred)) [LeuA] | 7776 | 12000±800 | significantly higher fluorescence | 12000±800 | active | 18000±2100 | 28000-33000 | 13000±1600 | 62390±5975 | 31473±2932 | 30842±4696 | 21275±2177 | 11.7% | 15.9% | 15-20% | 26.1% | Low binding | low nanomolar range
negative control (20-mer) peptide: short sequence (20-mer; SEQ ID NO:2) derived from LeuA known not to bind L. monocytogenes (NGVHATKSGASVNWGEAFSA; Control Leucocin A fragment) [reference compound] | – | – | – | – | inactive | – | 12164±2937 | – | – | – | – | – | – | – | – | – | – | –
